US20090203901A1, “Process for preparing pyrazole functionalized benzodiazepinones” (Roche Colorado Corporation, priority 2008, published 2009)

Key:
[1] = test system: vascular endothelial cell proliferation; details: endothelial versus tumor cell proliferation; cited from earlier work
[2] = test system: tumor growth and metastasis; details: cited from earlier work

Row | melting point [°C] | Compound | half-maximal inhibition of vascular endothelial cell proliferation at lower concentration than tumor cell proliferation [1] [logs] | tumor growth and metastasis in vivo [2]
1 | 177 to 178 | COc1cc(NC(=O)CBr)c(C(=O)c2ccccc2Cl)cc1F |  | 
2 | 210 to 212.5 | COc1cc2c(cc1F)C(c1ccccc1Cl)=NCC(=O)N2 |  | 
3 |  | CO[C@@H]1[C@H](OC(=O)NC(=O)CCl)CC[C@]2(CO2)[C@H]1[C@@]1(C)O[C@@H]1CC=C(C)C [AGM-1470] | 4 | inhibits tumor growth and metastasis in vivo
4 | 84 to 85 | COc1cc(F)c(C(=O)c2ccccc2Cl)cc1F [Example 1, 2′-Chloro-2,5-difluoro-4-methoxybenzophenone] |  | 
5 | 122 to 124 | COc1cc(NCc2ccccc2)c(C(=O)c2ccccc2Cl)cc1F [Example 2, 2-(Benzylamino)-2′-chloro-5-fluoro-4-methoxybenzophenone] |  | 
6 | 130.5 to 132.5 | COc1cc(N)c(C(=O)c2ccccc2Cl)cc1F [Example 3a, 2-Amino-2′-chloro-5-fluoro-4-methoxybenzophenone] |  | 
7 | 125 to 127 | C=CCNc1cc(OC)c(F)cc1C(=O)c1ccccc1Cl [Example 9, 2-(Allylamino)-2′chloro-5-fluoro-4-methoxybenzophenone] |  | 
